Test results from patent US11492335B2, “Aryl or heteroaryl triazolone derivatives or salts thereof, or pharmaceutical compositions comprising the same” (YUHAN CORPORATION, priority 2018, dated 2022).
Where a name gives a salt, the structure may show the parent alone. Read-outs that look alike come from different tables or passages of the source.

Legend:
Type in all cases: biochemical
recombinant human VAP-1 = biological target: T1, recombinant human VAP-1 (Homo sapiens, UniProt Q16853); assay: Activity on recombinant human VAP-1, Amplex Red HRP-coupled hydrogen peroxide assay, benzylamine substrate; settings: recombinant human VAP-1, benzylamine substrate, read-out: Inhibitory Activity (IC50, nM) human VAP-1
T1 construct: purchased R&D systems
T1 sequence (Q16853 1-763): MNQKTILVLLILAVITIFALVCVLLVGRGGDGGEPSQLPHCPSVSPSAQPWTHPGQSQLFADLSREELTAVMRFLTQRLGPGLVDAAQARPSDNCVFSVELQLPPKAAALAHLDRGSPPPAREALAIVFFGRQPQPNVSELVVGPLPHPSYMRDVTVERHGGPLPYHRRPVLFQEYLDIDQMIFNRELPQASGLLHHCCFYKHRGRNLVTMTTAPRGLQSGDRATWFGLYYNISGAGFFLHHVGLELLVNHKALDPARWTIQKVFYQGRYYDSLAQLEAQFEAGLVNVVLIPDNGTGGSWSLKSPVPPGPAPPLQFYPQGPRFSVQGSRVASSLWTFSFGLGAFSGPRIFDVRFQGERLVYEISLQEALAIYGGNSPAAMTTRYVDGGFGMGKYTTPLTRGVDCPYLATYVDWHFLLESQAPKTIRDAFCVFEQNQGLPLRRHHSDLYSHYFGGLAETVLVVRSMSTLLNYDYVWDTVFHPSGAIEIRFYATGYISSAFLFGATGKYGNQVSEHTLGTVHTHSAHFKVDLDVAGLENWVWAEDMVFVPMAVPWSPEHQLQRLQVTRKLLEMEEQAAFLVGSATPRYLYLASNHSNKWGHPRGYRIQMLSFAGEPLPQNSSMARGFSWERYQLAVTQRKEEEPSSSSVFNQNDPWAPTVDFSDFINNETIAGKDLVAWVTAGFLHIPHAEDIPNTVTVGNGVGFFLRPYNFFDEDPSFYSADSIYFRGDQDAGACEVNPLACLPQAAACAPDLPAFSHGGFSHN
In short: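 Fluorescence of resorufin formed from H2O2 (ex 544 nm, em 590 nm) was tracked for 1-2 h after adding 1 mM benzylamine, 200 uM Amplex Red and 1 U/mL HRP to enzyme pretreated with compound for 30 min at 37 °C. IC50 values derive from four-variable logistic fits.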

[1] = biological target: T2, recombinant human MAO-A (monoamine oxidase-A) (Homo sapiens, UniProt P21397); assay: Activity on recombinant human MAO-A, Amplex Red method, 0.5 mM tyramine substrate; settings: read-out: Inhibitory Activity (IC50, nM) MAO-A
T2 construct: purchased Sigma-Aldrich
T2 sequence (P21397 1-527): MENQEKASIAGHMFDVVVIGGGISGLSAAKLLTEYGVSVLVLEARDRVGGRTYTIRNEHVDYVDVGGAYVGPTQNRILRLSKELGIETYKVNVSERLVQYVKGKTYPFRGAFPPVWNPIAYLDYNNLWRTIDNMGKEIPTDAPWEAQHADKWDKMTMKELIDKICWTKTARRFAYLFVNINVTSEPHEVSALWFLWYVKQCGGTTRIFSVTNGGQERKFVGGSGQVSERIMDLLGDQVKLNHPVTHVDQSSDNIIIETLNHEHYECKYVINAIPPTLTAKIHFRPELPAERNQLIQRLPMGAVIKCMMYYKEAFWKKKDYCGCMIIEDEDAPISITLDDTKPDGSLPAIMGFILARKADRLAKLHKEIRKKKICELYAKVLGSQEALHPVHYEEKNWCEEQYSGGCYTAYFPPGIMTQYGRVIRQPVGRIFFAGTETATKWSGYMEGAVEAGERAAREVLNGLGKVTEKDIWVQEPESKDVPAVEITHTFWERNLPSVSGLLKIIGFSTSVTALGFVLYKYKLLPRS
In short: (§1)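 Fluorescence (544/590 nm) of resorufin formed from Amplex Red by HRP and enzyme-generated H2O2 was followed over 1-2 h. Substrates were 0.5 mM tyramine for MAO-A and 1 mM benzylamine for MAO-B; compounds were preincubated with enzyme for 30 min at 37° C. IC50 came from four-parameter logistic fitting of signal-rate inhibition.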

[2] = biological target: T3, recombinant human MAO-B (monoamine oxidase-B) (Homo sapiens, UniProt P27338); assay: Activity on recombinant human MAO-B, Amplex Red method, 1 mM benzylamine substrate; settings: read-out: Inhibitory Activity (IC50, nM) MAO-B
T3 construct: purchased Sigma-Aldrich
T3 sequence (P27338 1-520): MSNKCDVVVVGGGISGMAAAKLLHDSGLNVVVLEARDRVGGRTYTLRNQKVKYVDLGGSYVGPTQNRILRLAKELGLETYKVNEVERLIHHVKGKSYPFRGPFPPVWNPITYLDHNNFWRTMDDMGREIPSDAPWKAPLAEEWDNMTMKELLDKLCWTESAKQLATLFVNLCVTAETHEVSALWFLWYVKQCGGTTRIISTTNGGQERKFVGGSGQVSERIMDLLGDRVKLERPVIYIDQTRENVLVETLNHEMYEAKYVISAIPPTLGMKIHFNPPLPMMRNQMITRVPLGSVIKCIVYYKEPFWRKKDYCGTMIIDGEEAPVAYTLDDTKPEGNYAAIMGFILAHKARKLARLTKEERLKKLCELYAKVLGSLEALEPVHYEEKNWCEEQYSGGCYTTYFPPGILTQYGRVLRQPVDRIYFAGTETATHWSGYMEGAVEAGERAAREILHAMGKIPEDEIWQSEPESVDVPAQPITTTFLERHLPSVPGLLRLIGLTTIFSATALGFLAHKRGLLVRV
In short: as §1

[3] = biological target: T4, recombinant human DAO (diamine oxidase) (Homo sapiens, UniProt P19801); assay: Activity on recombinant human DAO, Amplex Red method, 1 mM putrescine substrate; settings: recombinant human DAO, read-out: Inhibitory Activity (IC50, nM) DAO
T4 construct: purchased R&D systems
T4 sequence (P19801 20-751): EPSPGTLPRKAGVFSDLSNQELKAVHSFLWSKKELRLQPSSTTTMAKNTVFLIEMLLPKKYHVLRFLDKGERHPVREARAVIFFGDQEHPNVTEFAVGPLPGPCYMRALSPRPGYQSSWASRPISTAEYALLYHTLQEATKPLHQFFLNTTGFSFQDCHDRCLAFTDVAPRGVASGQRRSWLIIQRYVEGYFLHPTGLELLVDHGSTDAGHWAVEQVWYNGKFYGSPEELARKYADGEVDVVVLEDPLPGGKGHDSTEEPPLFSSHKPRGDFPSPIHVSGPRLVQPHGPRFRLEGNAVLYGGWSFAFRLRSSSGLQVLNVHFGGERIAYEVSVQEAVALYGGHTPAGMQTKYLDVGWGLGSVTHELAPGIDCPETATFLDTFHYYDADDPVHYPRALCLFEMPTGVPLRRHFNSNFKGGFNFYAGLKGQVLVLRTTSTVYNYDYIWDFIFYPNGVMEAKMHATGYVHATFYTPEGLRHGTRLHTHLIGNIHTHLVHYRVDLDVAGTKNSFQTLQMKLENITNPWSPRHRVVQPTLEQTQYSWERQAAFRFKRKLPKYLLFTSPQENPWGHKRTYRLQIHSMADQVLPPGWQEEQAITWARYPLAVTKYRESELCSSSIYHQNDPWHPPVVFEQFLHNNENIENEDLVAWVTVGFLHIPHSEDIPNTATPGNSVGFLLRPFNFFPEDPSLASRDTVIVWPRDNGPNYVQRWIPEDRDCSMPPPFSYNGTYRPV
In short: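 Inhibition of recombinant human DAO (diamine oxidase, R&D systems) was assessed with the Amplex Red Hydrogen Peroxide Assay Kit. Hydrogen peroxide produced from 1 mM putrescine was detected through an HRP-coupled reaction that converts Amplex Red into fluorescent resorufin, read at 544 nm excitation and 590 nm emission. IC50 values came from four-parameter logistic fits in GraphPad Prism.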

[4] = 1 mM putrescine, * = between 10 and 100 nM, ** = between 300 and 1000 nM

Structure (SMILES)	IC50 (recombinant human VAP-1) [nM]	IC50 ([1]; 0.5 mM tyramine substrate) [nM]	IC50 ([2]; 1 mM benzylamine substrate) [nM]	IC50 ([3]; 1 mM putrescine substrate) [nM]	IC50 (recombinant human VAP-1; 30 min preincubation at 37° C.) [nM]	IC50 ([1]; 0.5 mM tyramine) [nM]	IC50 ([2]; 1 mM benzylamine) [nM]	IC50 [3, 4] [nM]
CC(C)c1nc(-c2cccc(-c3cccc(-n4cnn(C/C(=C/F)CN)c4=O)n3)c2)no1 [Example 181, 2-[(2E)-2-(aminomethyl)-3-fluoroprop-2-en-1-yl]-4-(6-{3-[5-(propan-2-yl)-1,2,4-oxadiazol-3-yl]phenyl}pyridin-2-yl)-2,4-dihydro-3H-1,2,4-triazol-3-one]	1.9	> 100000	880	2.1				
Cc1cc(-c2ccc3c(c2)NC(=O)CO3)cnc1-n1cnn(C/C(=C/F)CN)c1=O [Example 155, 6-(6-{1-[(2E)-2-(aminomethyl)-3-fluoroprop-2-en-1-yl]-5-oxo-1,5-dihydro-4H-1,2,4-triazol-4-yl}-5-methylpyridin-3-yl)-2H-1,4-benzoxazin-3 (4H)-one hydrochloride]	0.3	16000	4400	87				
NC/C(=C\F)Cn1ncn(-c2cc(-c3ccc4nonc4c3)ccn2)c1=O [Example 172, 2-[(2E)-2-(aminomethyl)-3-fluoroprop-2-en-1-yl]-4-[4-(2,1,3-benzooxadiazol-5-yl)pyridin-2-yl]-2,4-dihydro-3H-1,2,4-triazol-3-one]	0.67	> 100000	9070	< 30				
Cc1ccc(-c2cccc(-n3cnn(C/C(=C/F)CN)c3=O)c2)c2cccnc12 [Example 105, 2-[(2E)-2-(aminomethyl)-3-fluoroprop-2-en-1-yl]-4-[3-(8-methylquinolin-5-yl)phenyl]-2,4-dihydro-3H-1,2,4-triazol-3-one hydrochloride]					0.83	65200	9640	180
CC(=O)Nc1nc2cc(-c3cnc(-n4cnn(C/C(=C/F)CN)c4=O)cn3)ccc2s1 [Example 225, N-[5-(5-{1-[(2E)-2-(aminomethyl)-3-fluoroprop-2-en-1-yl]-5-oxo-1,5-dihydro-4H-1,2,4-triazol-4-yl}pyrazin-2-yl)-1,3-benzothiazol-2-yl]acetamide]	1	> 100000	53	< 100				
NC/C(=C\F)Cn1ncn(-c2cccc(-c3ccc4c(c3)NC(=O)OC4)n2)c1=O [Example 200, 7-(6-{1-[(2E)-2-(aminomethyl)-3-fluoroprop-2-en-1-yl]-5-oxo-1,5-dihydro-4H-1,2,4-triazol-4-yl}pyridin-2-yl)-1,4-dihydro-2H-3,1-benzoxazin-2-one hydrochloride]	0.2	> 100000	1100	1.6				
Cc1cc(-c2ccc3cn[nH]c3c2)cnc1-n1cnn(C/C(=C/F)CN)c1=O [Example 153, 2-[(2E)-2-(aminomethyl)-3-fluoroprop-2-en-1-yl]-4-[5-(1H-indazol-6-yl)-3-methylpyridin-2-yl]-2,4-dihydro-3H-1,2,4-triazol-3-one]	0.39	96000	703	640				
Cc1ccc(-c2ccc3cn[nH]c3c2)nc1-n1cnn(C/C(=C/F)CN)c1=O [Example 214, 2-[(2E)-2-(aminomethyl)-3-fluoroprop-2-en-1-yl]-4-[6-(1H-indazol-6-yl)-3-methylpyridin-2-yl]-2,4-dihydro-3H-1,2,4-triazol-3-one hydrochloride]	23	> 100000	> 100000	1400				
NC/C(=C/F)Cn1ncn(-c2nccs2)c1=O [Example 39, 2-[(2Z)-2-(aminomethyl)-3-fluoroprop-2-en-1-yl]-4-(1,3-thiazol-2-yl)-2,4-dihydro-3H-1,2,4-triazol-3-one hydrochloride]					1.7	5700	2100	30
NC/C(=C\F)Cn1ncn(-c2cccc(-c3ccc(N4CCOCC4)nc3)n2)c1=O [Example 189, 2-[(2E)-2-(aminomethyl)-3-fluoroprop-2-en-1-yl]-4-[6′-(morpholin-4-yl)-2,3′-bipyridin-6-yl]-2,4-dihydro-3H-1,2,4-triazol-3-one]	0.53	> 100000	> 10000	< 30				
NC/C(=C\F)Cn1ncn(-c2cccc(-c3cccc(N4CCNCC4)c3)n2)c1=O [Example 185, 2-[(2E)-2-(aminomethyl)-3-fluoroprop-2-en-1-yl]-4-{6-[3-(piperazin-1-yl)phenyl]pyridin-2-yl}-2,4-dihydro-3H-1,2,4-triazol-3-one hydrochloride]	2.4	> 100000	> 10000	2.5				
